According to patent US8846873B2, “Antibodies directed to GPNMB and uses thereof” (Celldex Therapeutics, Inc., priority 2004, dated 2014):
“Also recorded” adds a separate entry of the source.

Key:
[1] = system: human T cells (CD3); assay: Flow cytometry of CR011 engineered antibodies; format: binding; settings: 5 μg/sample/100 μl
Source text: (§1) (Jackson ImmunoResearch, West Grove, Pa.) Ten thousand events were collected and analyzed on a FACSCalibur instrument (Becton Dickinson, Mountain View, Calif.).
(§2) To verify binding of the bi-scFv to human CD3 molecules, we used purified human T cells. […] Control anti-CD3 mAb bound to T cells, and control anti-GPNMB mAb bound to SK-Mel-5 tumor cells.

[2] = system: SK-Mel-5 cells; assay: Flow cytometry of CR011 engineered antibodies; format: binding, human; settings: 5 μg/sample/100 μl
Source text: as §1, §2

[3] = system: SK-Mel-5 tumor cells; assay: T lymphocyte redirected cytotoxicity (PKH2 / propidium iodine flow cytometry); format: cell-based, human; settings: purified T cells cultured O/N with tumor cells
Description: Tumor cells were labeled with PKH2 green fluorescent linker kit (Sigma) and washed. Purified T cells were cultured O/N with PKH2-labeled tumor cells in the presence or absence of purified bi-scFv. Death of GPNMB positive tumor cells was measured by propidium iodine (PI) incorporation.

[4] = molecular target: T1, purified recombinant GPNMB (Homo sapiens, UniProt Q14956); assay: ELISA of CR011 engineered antibodies on recombinant GPNMB; format: binding; settings: anti-FLAG-HRP detection
T1 construct: made in house; host or cells: HEK 293
T1 sequence (Q14956 23-492): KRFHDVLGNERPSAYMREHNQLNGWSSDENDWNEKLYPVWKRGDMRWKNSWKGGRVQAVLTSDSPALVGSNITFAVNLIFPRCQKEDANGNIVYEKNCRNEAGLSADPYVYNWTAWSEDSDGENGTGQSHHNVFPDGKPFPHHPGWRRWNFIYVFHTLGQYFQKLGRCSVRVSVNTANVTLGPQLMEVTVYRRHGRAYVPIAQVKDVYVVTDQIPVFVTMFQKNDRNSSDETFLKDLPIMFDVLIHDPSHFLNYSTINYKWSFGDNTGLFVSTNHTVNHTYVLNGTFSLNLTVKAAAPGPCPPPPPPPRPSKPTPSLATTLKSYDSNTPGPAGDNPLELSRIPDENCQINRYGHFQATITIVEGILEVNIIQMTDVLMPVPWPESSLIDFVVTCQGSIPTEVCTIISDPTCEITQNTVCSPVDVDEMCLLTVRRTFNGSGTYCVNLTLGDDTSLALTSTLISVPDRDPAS
Description: Plates were then blocked and washed. Various dilutions of the CR011 engineered antibodies were added into the wells. Plates were incubated for 1 h and washed. HRP-conjugated anti-FLAG M2 mAb (Sigma, St. Louis, Mo.) was added into the wells for 1 h, washed and the reaction developed with the TMB substrate reagent as described by the manufacturer (Pharmingen, San Jose, Calif.).
Plates were coated with human GPNMB protein tagged with His and V5. […] Binding of the recombinant mAbs (both monomer and dimer) was detected using anti-FLAG-HRP conjugated mAb M2 (Sigma).

In the case of “CR011 scFv: CR011 single chain antibody VL-L4-VH Flag; SEQ ID NO: 355”, the “binding to T cells” value [1] is reported as “did not bind CD3 positive T cells”, the “binding to SK-Mel-5 cells” value [2] is reported as “present at a low level” and the “killing of SK-Mel-5 tumor cells by T lymphocytes” value [3] is reported as “did not increase killing”. The “binding to recombinant GPNMB protein” value [4] was “bound to the GPNMB target; also recorded: bind to the recombinant GPNMB protein”.
